From US9637488B2, “Heterocyclic compounds as inhibitors of class I PI3KS” (priority 2015, dated 2017)

How the values were obtained:
Type in all cases: biochemical
PI3Kδ (p110δ/p85α) = PI3Kδ (p110δ/p85α) (Homo sapiens (Human), UniProt O00329); assay: cell-free PI3K HTRF assay, PI3Kδ; conditions: for IC50: 10-dose IC50 mode, 3-fold serial dilution starting at 1 μM, ATP 10 μM, read-out: IC50 value for the inhibition of PI3Kδ; for potency or inhibition against PI3Kδ (in words): qualitative statement
Chain of PI3Kδ (p110δ/p85α) (O00329 whole entry): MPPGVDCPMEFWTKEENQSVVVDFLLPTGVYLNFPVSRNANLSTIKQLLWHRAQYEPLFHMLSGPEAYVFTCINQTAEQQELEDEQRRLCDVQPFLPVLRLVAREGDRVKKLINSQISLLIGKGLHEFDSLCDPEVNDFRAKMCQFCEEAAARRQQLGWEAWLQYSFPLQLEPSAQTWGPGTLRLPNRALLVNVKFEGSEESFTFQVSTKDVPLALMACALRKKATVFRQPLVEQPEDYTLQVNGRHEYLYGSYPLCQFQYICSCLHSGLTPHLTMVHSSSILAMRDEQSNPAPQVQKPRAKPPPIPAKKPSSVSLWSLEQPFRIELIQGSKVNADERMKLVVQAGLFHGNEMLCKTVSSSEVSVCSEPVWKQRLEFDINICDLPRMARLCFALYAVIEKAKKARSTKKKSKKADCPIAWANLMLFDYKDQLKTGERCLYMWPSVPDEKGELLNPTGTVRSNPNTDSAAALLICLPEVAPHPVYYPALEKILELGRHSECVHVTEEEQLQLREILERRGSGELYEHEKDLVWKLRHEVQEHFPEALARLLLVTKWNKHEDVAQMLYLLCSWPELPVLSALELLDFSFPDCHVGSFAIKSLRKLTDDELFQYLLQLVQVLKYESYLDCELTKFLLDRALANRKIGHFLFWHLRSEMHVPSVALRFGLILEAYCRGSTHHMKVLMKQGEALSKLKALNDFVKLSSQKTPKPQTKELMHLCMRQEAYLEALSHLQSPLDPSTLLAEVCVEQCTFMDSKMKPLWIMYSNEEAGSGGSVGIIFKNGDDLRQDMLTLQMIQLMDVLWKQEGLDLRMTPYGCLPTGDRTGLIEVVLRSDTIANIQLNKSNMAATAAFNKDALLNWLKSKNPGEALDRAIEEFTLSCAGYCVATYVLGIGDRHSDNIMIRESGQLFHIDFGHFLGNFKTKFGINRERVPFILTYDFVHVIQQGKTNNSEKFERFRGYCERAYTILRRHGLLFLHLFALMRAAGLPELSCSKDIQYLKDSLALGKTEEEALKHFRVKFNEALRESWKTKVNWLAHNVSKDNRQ
Chain of PI3Kδ (p110δ/p85α) (P27986 whole entry partner): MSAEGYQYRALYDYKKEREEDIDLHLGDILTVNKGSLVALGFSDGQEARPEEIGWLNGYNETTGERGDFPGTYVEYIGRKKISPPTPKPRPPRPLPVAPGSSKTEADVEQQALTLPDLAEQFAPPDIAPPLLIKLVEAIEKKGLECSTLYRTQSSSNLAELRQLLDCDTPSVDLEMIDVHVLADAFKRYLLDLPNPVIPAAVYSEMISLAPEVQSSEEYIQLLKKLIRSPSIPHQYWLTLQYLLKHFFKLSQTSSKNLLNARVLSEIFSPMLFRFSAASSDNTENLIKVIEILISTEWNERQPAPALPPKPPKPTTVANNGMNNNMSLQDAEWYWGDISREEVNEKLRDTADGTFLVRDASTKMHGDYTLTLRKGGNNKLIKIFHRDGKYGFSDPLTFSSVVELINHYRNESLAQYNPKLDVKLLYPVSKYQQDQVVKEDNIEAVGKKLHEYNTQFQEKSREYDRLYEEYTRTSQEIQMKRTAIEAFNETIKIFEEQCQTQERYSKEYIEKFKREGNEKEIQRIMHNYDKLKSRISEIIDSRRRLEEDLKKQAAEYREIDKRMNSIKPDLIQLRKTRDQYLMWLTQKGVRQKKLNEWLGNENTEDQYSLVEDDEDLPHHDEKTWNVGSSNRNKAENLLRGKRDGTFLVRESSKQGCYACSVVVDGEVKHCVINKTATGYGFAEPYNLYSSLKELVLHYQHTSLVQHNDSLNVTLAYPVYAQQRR

PI3Kβ (p110β/p85α) = PI3Kβ (p110β/p85α) (Homo sapiens (Human), UniProt P42338); assay: cell-free PI3K HTRF assay, PI3Kβ; conditions: ratio of IC50 against PI3Kβ related to PI3Kδ; 10-dose, 3-fold serial dilution starting at 10 μM
Chain of PI3Kβ (p110β/p85α) (P42338 whole entry): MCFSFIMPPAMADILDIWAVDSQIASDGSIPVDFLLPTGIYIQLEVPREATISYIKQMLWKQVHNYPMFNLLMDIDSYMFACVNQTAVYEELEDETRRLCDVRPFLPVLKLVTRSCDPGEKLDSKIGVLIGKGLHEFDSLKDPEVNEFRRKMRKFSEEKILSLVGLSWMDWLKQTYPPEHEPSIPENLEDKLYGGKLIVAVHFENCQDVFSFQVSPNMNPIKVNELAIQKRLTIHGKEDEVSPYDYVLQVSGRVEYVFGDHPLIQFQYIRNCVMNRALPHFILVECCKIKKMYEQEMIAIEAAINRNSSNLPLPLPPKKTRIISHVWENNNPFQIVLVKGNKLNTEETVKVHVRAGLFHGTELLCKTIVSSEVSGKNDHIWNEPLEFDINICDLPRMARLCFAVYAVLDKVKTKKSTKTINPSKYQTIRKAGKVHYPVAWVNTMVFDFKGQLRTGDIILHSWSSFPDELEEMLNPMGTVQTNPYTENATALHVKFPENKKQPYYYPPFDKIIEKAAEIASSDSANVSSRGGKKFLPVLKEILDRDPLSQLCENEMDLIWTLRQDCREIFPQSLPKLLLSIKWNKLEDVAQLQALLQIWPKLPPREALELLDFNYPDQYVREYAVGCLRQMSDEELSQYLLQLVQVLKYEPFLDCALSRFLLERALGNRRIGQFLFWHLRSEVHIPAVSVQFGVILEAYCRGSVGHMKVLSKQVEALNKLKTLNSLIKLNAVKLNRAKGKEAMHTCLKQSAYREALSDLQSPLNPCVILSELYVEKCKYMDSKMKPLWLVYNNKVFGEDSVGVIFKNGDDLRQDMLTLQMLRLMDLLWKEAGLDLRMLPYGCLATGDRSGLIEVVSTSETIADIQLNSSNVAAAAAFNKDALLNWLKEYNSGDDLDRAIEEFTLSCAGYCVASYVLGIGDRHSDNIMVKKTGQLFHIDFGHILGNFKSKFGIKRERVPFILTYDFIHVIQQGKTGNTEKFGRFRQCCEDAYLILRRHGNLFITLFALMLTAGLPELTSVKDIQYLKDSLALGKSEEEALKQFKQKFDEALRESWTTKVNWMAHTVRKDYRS
Chain of PI3Kβ (p110β/p85α) (P27986 whole entry partner): as the sequence (P27986 whole entry partner) above
Experimental: (§1) Exemplary compounds of the invention were tested for inhibitory activity and potency against class I PI3Ks (p110α/p85α, p110β/p85α, p110δ/p85α and p110γ) using a cell-free based PI3K HTRF assay. This assay was used to detect the formation of the product 3,4,5-inositol triphosphate molecule (PIP3) by displacement of biotin-PIP3 from an energy transfer complex consisting of Europium labeled anti-GST monoclonal antibody, a GST-tagged pleckstrin homology (PH) domain, biotinylated PIP3 and Streptavidin-Allophycocyanin (APC). Excitation of Europium in the complex results in an energy transfer to the APC and a fluorescent emission at 665 nm. The PIP3 product formed by human PI 3-Kinase activity displaces biotin-PIP3 from the complex resulting in a loss of energy transfer and thus a decrease in signal.
(§2) Human class I PI3K isoforms were co-expressed in a Baculovirus infected cell expression system. The PI3K isoforms were assayed in the presence of HEPES (50 mM, pH 7.0), NaN3 (0.02%), BSA (0.01%), orthovanadate (0.1 mM), and DMSO (1%). The exemplary compounds dissolved in DMSO were delivered into the kinase reaction mixture by Acoustic technology (Echo550; nanolitter range), and were pre-incubated for 10 min at room temperature before adding ATP (10 μM) to initiate the reaction. After 30 min at 30° C., the reactions were quenched with a stop solution, incubated overnight with a detection mixture before measuring HTRF (Ex: 320 nm; Em: 615/665 nm). The emission ratio is converted into μM PIP3 production based on PIP3 standard curves, and the nonlinear regression to obtain the standard curve and IC50 values are performed using Graphpad Prism software.
(§3) The assays were performed at Reaction Biology Corporation, One Great Valley Parkway, Suite 2, Malvern, Pa. 19355, USA.
(§4) Exemplary compounds of the invention selected were further tested their inhibitory activity or potency against PI3Kα, PI3Kβ, and PI3Kγ in 10-dose IC50 mode with 3-fold serial dilution starting at 10 μM. […] Table 5 below illustrates the selectivity of the exemplary compounds using the ratios of the IC50 values of the compounds against PI3Kα, PI3Kβ, and PI3Kγ related to PI3Kδ. […] Such unexpected selectivity against PI3Kδ and/or PI3Kγ is attributed to the unusual overall shape of the molecules of formula (I) and (II), and the optimal selection of R1, R2, R3, R4, X, and Y defined in formula (I) and (II) in order to bind favorably in the ATP-binding pocket of PI3Kδ and/or PI3Kγ versus other class I isozymes.

PI3Kγ (p110γ) = PI3Kγ (p110γ) (Homo sapiens (Human), UniProt P48736); assay: cell-free PI3K HTRF assay, PI3Kγ; conditions: ratio of IC50 against PI3Kγ related to PI3Kδ; 10-dose, 3-fold serial dilution starting at 10 μM
Chain of PI3Kγ (p110γ) (P48736 whole entry): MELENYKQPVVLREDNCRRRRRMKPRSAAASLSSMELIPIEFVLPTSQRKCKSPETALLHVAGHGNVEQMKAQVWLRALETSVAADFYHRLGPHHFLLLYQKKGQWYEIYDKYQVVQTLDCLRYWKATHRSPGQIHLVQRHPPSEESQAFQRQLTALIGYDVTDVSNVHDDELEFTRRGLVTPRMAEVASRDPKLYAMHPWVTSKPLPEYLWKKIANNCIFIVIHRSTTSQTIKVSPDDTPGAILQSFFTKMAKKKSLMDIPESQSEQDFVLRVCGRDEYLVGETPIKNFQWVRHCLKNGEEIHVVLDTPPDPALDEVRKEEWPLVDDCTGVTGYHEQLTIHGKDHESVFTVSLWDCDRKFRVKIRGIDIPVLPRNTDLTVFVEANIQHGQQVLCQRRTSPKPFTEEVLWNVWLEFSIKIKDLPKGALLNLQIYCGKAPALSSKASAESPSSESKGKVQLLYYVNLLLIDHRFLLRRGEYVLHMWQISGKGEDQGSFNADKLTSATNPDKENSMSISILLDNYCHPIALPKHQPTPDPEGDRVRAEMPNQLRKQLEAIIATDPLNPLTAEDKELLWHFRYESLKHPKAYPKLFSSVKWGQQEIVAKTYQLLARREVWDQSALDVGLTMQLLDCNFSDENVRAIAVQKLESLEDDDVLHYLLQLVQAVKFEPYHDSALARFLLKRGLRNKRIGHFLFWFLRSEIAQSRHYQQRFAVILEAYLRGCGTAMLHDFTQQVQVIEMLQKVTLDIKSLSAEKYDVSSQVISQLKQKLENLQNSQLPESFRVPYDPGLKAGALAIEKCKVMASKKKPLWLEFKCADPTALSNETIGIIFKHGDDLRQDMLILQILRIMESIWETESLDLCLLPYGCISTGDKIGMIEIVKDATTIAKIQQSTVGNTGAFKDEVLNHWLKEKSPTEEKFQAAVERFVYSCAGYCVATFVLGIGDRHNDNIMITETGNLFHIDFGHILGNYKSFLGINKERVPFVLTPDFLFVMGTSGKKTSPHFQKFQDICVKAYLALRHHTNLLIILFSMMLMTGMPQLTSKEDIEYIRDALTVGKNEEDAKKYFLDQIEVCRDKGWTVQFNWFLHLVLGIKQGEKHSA
Experimental: as §1, §2, §3, §4

PI3Kα (p110α/p85α) = PI3Kα (p110α/p85α) (Homo sapiens (Human), UniProt P42336); assay: cell-free PI3K HTRF assay, PI3Kα; conditions: ratio of IC50 against PI3Kα related to PI3Kδ; 10-dose, 3-fold serial dilution starting at 10 μM
Chain of PI3Kα (p110α/p85α) (P42336 whole entry): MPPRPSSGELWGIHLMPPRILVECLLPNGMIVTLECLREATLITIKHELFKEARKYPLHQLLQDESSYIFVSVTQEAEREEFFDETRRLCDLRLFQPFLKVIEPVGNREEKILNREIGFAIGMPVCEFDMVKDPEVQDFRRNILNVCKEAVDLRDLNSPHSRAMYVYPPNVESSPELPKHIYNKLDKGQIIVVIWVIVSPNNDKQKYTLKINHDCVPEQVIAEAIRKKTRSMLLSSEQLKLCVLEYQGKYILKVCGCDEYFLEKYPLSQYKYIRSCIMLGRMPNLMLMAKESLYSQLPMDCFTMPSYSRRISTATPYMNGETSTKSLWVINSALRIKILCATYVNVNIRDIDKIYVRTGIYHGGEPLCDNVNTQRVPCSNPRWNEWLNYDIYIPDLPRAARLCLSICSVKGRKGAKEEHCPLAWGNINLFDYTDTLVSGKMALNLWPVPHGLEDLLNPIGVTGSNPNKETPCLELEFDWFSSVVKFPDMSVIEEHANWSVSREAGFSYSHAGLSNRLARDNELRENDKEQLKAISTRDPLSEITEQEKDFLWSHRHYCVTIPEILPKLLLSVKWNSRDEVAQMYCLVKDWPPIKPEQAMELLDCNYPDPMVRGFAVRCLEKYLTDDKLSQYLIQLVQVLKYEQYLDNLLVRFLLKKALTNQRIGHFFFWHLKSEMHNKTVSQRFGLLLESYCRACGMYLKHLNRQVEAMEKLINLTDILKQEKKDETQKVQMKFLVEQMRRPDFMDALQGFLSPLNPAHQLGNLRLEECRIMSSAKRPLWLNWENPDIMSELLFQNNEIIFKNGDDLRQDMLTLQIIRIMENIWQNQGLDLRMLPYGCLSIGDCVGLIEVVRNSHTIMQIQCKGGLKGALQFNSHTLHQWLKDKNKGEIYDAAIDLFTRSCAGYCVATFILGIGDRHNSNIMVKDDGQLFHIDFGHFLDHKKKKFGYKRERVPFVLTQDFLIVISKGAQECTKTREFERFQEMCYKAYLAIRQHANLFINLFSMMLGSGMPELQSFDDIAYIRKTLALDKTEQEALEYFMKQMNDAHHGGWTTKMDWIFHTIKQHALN
Chain of PI3Kα (p110α/p85α) (P27986 whole entry partner): as the sequence (P27986 whole entry partner) above
Experimental: as §1, §2, §3, §4

| IC50 (PI3Kδ (p110δ/p85α)) [nM] | Ratio (β/δ) (PI3Kβ (p110β/p85α)) | Ratio (γ/δ) (PI3Kγ (p110γ)) | Ratio (α/δ) (PI3Kα (p110α/p85α)) | potency or inhibition against PI3Kδ (in words) (PI3Kδ (p110δ/p85α)) | Compound |
| --- | --- | --- | --- | --- | --- |
| > 1000 | – | – | – | – | Nc1cc(N2CCCC2c2cc3ccc(F)cc3nc2-c2ccccc2)nc(N)n1 (stereo not drawn) [Compound 28] |
| 1.7 | 478 | 52.4 | 2170 | – | N#Cc1c(N)ncnc1N1CCCC1c1cc2ccc(F)cc2nc1-c1ccccc1 (stereo not drawn) [Compound 29] |
| 4.8 | 631 | 85 | 962 | – | COc1cccc(-c2nc3cc(F)ccc3cc2C2CCCN2c2ncnc(N)c2C#N)c1 (stereo not drawn) [Compound 30] |
| 103 | >97 | 16 | – | – | Fc1ccc2cc(C3CC=CCN3c3ncnc4[nH]cnc34)c(-c3ccccc3)nc2c1 (stereo not drawn) [Compound 31, 3-(1-(9H-purin-6-yl)-1,2,3,6-tetrahydropyridin-2-yl)-7-fluoro-2-phenylquinoline] |
| 7.1 | 537 | 106 | 529 | – | Fc1ccc2cc(C3CCCCN3c3ncnc4[nH]cnc34)c(N3CCOCC3)nc2c1 (stereo not drawn) [Compound 38, 4-(3-(1-(9H-purin-6-yl)piperidin-2-yl)-7-fluoroquinolin-2-yl)morpholine] |
| 240 | – | – | – | – | Fc1ccc2cc(C3CCCCN3c3ncnc4[nH]cnc34)c(-c3ccccc3)nc2c1 (stereo not drawn) [Compound 41] |
| 55 | >181 | 103 | – | – | N#Cc1c(N)ncnc1N1CC=CCC1c1cc2ccc(F)cc2nc1-c1ccccc1 (stereo not drawn) [Compound 42] |
| 6.8 | 169 | 39 | 689 | – | Fc1ccc2cc(C3CC=CCN3c3ncnc4[nH]cnc34)c(N3CCOCC3)nc2c1 (stereo not drawn) [Compound 43] |
| 6.2 | 297 | 152 | – | – | N#Cc1c(N)ncnc1N1CC=CCC1c1cc2ccc(F)cc2nc1N1CCOCC1 (stereo not drawn) [Compound 44] |
| > 1000 | – | – | – | week potency or inhibition | Fc1ccc2cc(C3CCCCCN3c3ncnc4[nH]cnc34)c(-c3ccccc3)nc2c1 (stereo not drawn) [Compound 45, 3-(1-(9H-purin-6-yl)azepan-2-yl)-7-fluoro-2-phenylquinoline] |
| < 0.05 | >1120 | ~10 | >1801 | – | Cc1cccc2cc([C@@H]3CCCN3c3nc(N)nc(N)c3C#N)c(-c3ccccc3)nc12 [Compound 54, (S)-2,4-diamino-6-(2-(8-methyl-2-phenylquinolin-3-yl)pyrrolidin-1-yl)pyrimidine-5-carbonitrile] |
| 12.8 | 520 | 53 | >781 | – | Fc1ccc2cc([C@@H]3CCCN3c3ncnc4[nH]cnc34)c(-c3ccccn3)nc2c1 [Compound 62] |
| 18 | 264 | 5.6 | 556 | – | Cc1cccc2cc([C@@H]3CCCN3c3ncnc4[nH]cnc34)c(-c3ccccc3)nc12 [Compound 63] |
| 1.6 | 317 | 48 | 748 | – | Cc1cccc2cc([C@@H]3CCCN3c3ncnc4[nH]cnc34)c(N3CCOCC3)nc12 [Compound 64] |
| < 0.05 | >789 | >188 | >1738 | – | Cc1cccc2cc([C@@H]3CCCN3c3ncnc(N)c3C#N)c(N3CCOCC3)nc12 [Compound 65] |

The next lines start with the compound.

| Compound | IC50 (PI3Kδ (p110δ/p85α)) [nM] | Ratio (β/δ) (PI3Kβ (p110β/p85α)) | Ratio (γ/δ) (PI3Kγ (p110γ)) | Ratio (α/δ) (PI3Kα (p110α/p85α)) | potency or inhibition against PI3Kδ (in words) (PI3Kδ (p110δ/p85α)) |
| --- | --- | --- | --- | --- | --- |
| Fc1ccc2cc(C3CCCN3c3ncnc4[nH]cnc34)c(-c3cccnc3)nc2c1 (stereo not drawn) [Compound 1, 3-(1-(9H-purin-6-yl)pyrrolidin-2-yl)-7-fluoro-2-(pyridin-3-yl)quinoline] | 27 | 267 | 39 | – | – |
| N#Cc1c(N)ncnc1N1CCCC1c1cc2ccc(F)cc2nc1N1CCOCC1 (stereo not drawn) [Compound 7, 4-amino-6-(2-(7-fluoro-2-morpholinoquinolin-3-yl)pyrrolidin-1-yl)pyrimidine-5-carbonitrile] | 1.6 | 344 | 111 | 1000 | – |
| Fc1ccc2cc(C3CCCN3c3ncnc4[nH]cnc34)c(-c3ccccn3)nc2c1 (stereo not drawn) [Compound 10, 3-(1-(9H-purin-6-yl)pyrrolidin-2-yl)-7-fluoro-2-(pyridin-2-yl)quinoline] | 13 | 519 | 53 | >781 | – |
| Cn1c(=O)n(C)c2c(N3CCCC3c3cc4ccc(F)cc4nc3-c3ccccn3)ncnc21 (stereo not drawn) [Compound 13] | > 1000 | – | – | – | week potency or inhibition |
| Fc1ccc2cc(C3CCCN3c3ncnc4[nH]cnc34)c(-c3ccncc3)nc2c1 (stereo not drawn) [Compound 14] | 521 | 4.2 | 3.3 | >19 | – |
| N#Cc1c(N)ncnc1N1CCCC1c1cc2ccc(F)cc2nc1-c1ccncc1 (stereo not drawn) [Compound 15] | 62 | 11 | 2.2 | 138 | – |
| Fc1ccc2cc(C3CCCN3c3ncnc4[nH]cnc34)c(N3CCCCC3)nc2c1 (stereo not drawn) [Compound 16] | 2.2 | 1153 | 145 | 3360 | – |
| Nc1nc(N2CCCC2c2cc3ccc(F)cc3nc2N2CCCCC2)c2nc[nH]c2n1 (stereo not drawn) [Compound 17] | 0.9 | 1714 | 1.1 | 5958 | – |
| N#Cc1c(N)ncnc1N1CCCC1c1cc2ccc(F)cc2nc1N1CCCCC1 (stereo not drawn) [Compound 18] | 0.1 | 14712 | 955 | >100000 | – |
| Fc1ccc2cc(C3CCCN3c3ncnc4[nH]cnc34)c(N3CCOCC3)nc2c1 (stereo not drawn) [Compound 20] | 19 | 190 | 18.8 | 528 | – |
| Fc1ccc2cc(C3CCCN3c3ncnc4[nH]cnc34)c(-c3ccccc3)nc2c1 (stereo not drawn) [Compound 21] | 0.7 | 3550 | 67.5 | 12818 | – |
| Fc1cccc(-c2nc3cc(F)ccc3cc2C2CCCN2c2ncnc3[nH]cnc23)c1 (stereo not drawn) [Compound 22] | 0.5 | 8946 | 139 | 16451 | – |
| COc1cccc(-c2nc3cc(F)ccc3cc2C2CCCN2c2ncnc3[nH]cnc23)c1 (stereo not drawn) [Compound 23] | 11 | 396 | 50 | >926 | – |
| Fc1ccc2cc(C3CCCN3c3ncnc4[nH]cnc34)c(-c3ccccc3F)nc2c1 (stereo not drawn) [Compound 24] | 16 | 393 | 22 | >613 | – |
| COc1ccccc1-c1nc2cc(F)ccc2cc1C1CCCN1c1ncnc2[nH]cnc12 (stereo not drawn) [Compound 25] | 14 | 297 | 5.1 | >694 | – |
| Fc1ccc2cc(C3CCCN3c3ncnc4[nH]cnc34)c(-c3cccc(OC(F)(F)F)c3)nc2c1 (stereo not drawn) [Compound 26] | 207 | 39.7 | 12 | 483 | – |
| N#Cc1c(N)nc(N)nc1N1CCCC1c1cc2ccc(F)cc2nc1-c1ccccc1 (stereo not drawn) [Compound 27] | < 0.05 | >2185 | >2.3 | >12756 | – |
